Test results reported in ChEMBL document CHEMBL1152394, “Antiproliferative bistramides from Trididemnum cyclops from Madagascar (1)” (J Nat Prod, 2009).

Experiments:
A2780 [1] = assay: Antiproliferative activity against human A2780 cells; type: functional, cell-based
P388 [2] = assay: Ratio of IC50 for mouse P388 cells to IC50 for human A2780 cells; type: functional
KB = assay: Antiproliferative activity against human KB cells; type: functional, cell-based
P388 [3] = assay: Antiproliferative activity against mouse P388 cells; type: functional, cell-based
A2780 [4] = assay: Ratio of IC50 for human KB cells to IC50 for human A2780 cells; type: functional
[5] = Antiproliferative activity against endothelial cells; type: cell-based; details: Endothelial cell
A2780 [6] = assay: Ratio of IC50 for endothelial cells to IC50 for human A2780 cells

Structure (SMILES)	IC50 (A2780 [1]) [nM]	Ratio IC50 (P388 [2])	IC50 (KB) [nM]	IC50 (P388 [3]) [nM]	Ratio IC50 (A2780 [4])	IC50 [5] [nM]	Ratio IC50 (A2780 [6])
C/C=C/C(O)C/C=C/C[C@H](C)[C@@H](O)CC(=O)NC[C@H](O)[C@H](C)C(=O)NCCC[C@H]1O[C@@]2(CCC[C@@H](CC[C@H](C)/C=C(\C)C(C)=O)O2)CC[C@@H]1C (some centres undefined)	340	10	45	20	10	22	10
C/C=C/C(=O)C[C@H]1CC[C@H](C)[C@H](CC(=O)NC[C@H](O)[C@H](C)C(=O)NCCC[C@H]2O[C@@]3(CCC[C@H](CC[C@H](C)/C=C(\C)[C@H](C)O)O3)CC[C@@H]2C)O1 [BISTRAMIDE A]	260	10	45	20	10	22	10
